Data on five compounds can be found in patent publication US5510332A, “Process to inhibit binding of the integrin α4 62 1 to VCAM-1 or fibronectin and linear peptides therefor” (priority 1994, dated 1996).

As a reminder, the IC50 is the concentration that inhibits the measured activity by half.

Assay [1] concerns the target T1, binding of α4 β1 integrin to VCAM-1 (Homo sapiens, UniProt P05556+P13612).
T1 construct: endogenous in cells; host or cells: Ramos (human B-cell line) for endogenous α4β1; the VCAM-mouse IgG fusion was made in house, secreted from transfected COS cells and captured on goat anti-mouse IgG Dynal beads
In words: Cell-protein assay: calcein-labelled Ramos cells binding to VCAM-mouse IgG fusion protein on magnetic beads. The class given is cell-based. To be noted: for peptide concentration at which binding of α4 β1 to VCAM-1 is significantly inhibited: less than about 100, assay format not stated. An excerpt:
The VCAM-1 binding assays involved assessing the ability of cells that express α4 β1 to bind cells expressing VCAM (cell-cell assay) or to bind purified VCAM protein (cell-protein assay). The integrin-expressing cell types used in these assays included the human B-cell line, Ramos, and the human promyelocytic line, HL-60. The cell-cell assay was used to compare the relative potency of peptides at a single dose. The cell-protein assay was used to generate dose response curves and determine IC50 values.
An expression vector was designed such that a region of VCAM known to bind the integrin was-expressed as a fusion protein with mouse IgG. A cDNA containing the two N-terminal domains of human VCAM was generated by the polymerase chain reaction (PCR) from a full length VCAM cDNA. Similarly, a cDNA containing the hinge, CH2 and CH3 regions of mouse IgG2A was amplified by PCR from cDNA made from total RNA isolated from the hybridoma cell line 402C10. The VCAM cDNA was ligated to the mouse IgG cDNA and cloned into a mammalian expression vector. […] The media was collected and active protein was purified by immunoprecipitation using Dynal magnetic polystyrene beads coated with goat anti-mouse IgG. Following immunoprecipitation, the beads bound Ramos cells that expressed the integrin α4 β1.
Ramos cells were fluorescently labeled with calcein AM (Molecular Probes) and resuspended in 1 ml of binding buffer (Hanks' balanced salt solution, pH 7.4, 1.0 mM CaCl2, 1.0 mM MgCl2 and 1.0 mM MnCl2). The beads (10 μl, 4×10^6 beads/ml) were placed in wells of a 96-well microtiter dish with 10 μl of peptide at various concentrations. The beads were incubated with 10 μl of labeled cells (10^7 cells/ml) for 10 min at room temperature. Following immobilization of the beads onto the plastic with a magnet, unbound cells were removed by washing three times with binding buffer. The remaining bound cells were lysed in 50 mM Tris, pH 7.4, 5.0 mM EDTA, 1.0% NP-40 and quantitated by fluorimetry using a Millipore Cytofluor 2350 fluorimeter. Dose response curves were calculated and IC50 values determined. Peptides having the amino acid residue sequences of SEQ ID NOs:8-102 were tested for their ability to inhibit the binding of α4 β1 integrin to VCAM-1.

Assay [2] has as its target T2, binding of the integrin α4 β1 to VCAM (Homo sapiens, UniProt P05556+P13612).
T2 construct: endogenous in cells; host or cells: Ramos (human B-cell line) for endogenous α4β1; CHO cells stably transfected with human VCAM cDNA for the counter-receptor
In words: Cell-cell assay: 35S-labelled Ramos cells binding to VCAM expressing CHO cells. It is filed as cell-based. To be noted: single concentration at which SEQ ID NO:9 gives approximately 50% inhibition of adhesion; SEQ ID NO:9 = 1.00; >2.00 indicates little or no inhibition of VCAM-α4 β1 binding. An excerpt:
The VCAM-1 binding assays involved assessing the ability of cells that express α4 β1 to bind cells expressing VCAM (cell-cell assay) or to bind purified VCAM protein (cell-protein assay). The integrin-expressing cell types used in these assays included the human B-cell line, Ramos, and the human promyelocytic line, HL-60. The cell-cell assay was used to compare the relative potency of peptides at a single dose. The cell-protein assay was used to generate dose response curves and determine IC50 values. A human VCAM cDNA was amplified by the polymerase chain reaction (PCR) from cDNA reverse transcribed from RNA isolated from human umbilical vein endothelial cells. The VCAM cDNA was ligated into a mammalian expression vector and electroporated into chinese hamster ovary (CHO) cells. Cells were grown in G418 selective media and clones expressing high levels of VCAM were selected by FACS analysis. VCAM expressing CHO cells and nontransfected CHO cells were plated in 48 well cluster dishes at a density of 50,000 cells/well 24 hour prior to assay. The dishes were washed with binding buffer (DMEM, 1% BSA, 1.0 mM MnCl2, 0.02% sodium azide, pH 7.4) immediately prior to assay. […] Unbound cells were removed by washing with binding buffer and the remaining bound cells were lysed with 50 mM Tris, pH 8.0, 150 mM NaCl, 1% SDS and transferred to scintillation vials for quantitation.

Where a SMILES comes first, the peptide text is derived from it. Where no end group is shown, it is not given here.

T1 sequence (P13612 34-1032): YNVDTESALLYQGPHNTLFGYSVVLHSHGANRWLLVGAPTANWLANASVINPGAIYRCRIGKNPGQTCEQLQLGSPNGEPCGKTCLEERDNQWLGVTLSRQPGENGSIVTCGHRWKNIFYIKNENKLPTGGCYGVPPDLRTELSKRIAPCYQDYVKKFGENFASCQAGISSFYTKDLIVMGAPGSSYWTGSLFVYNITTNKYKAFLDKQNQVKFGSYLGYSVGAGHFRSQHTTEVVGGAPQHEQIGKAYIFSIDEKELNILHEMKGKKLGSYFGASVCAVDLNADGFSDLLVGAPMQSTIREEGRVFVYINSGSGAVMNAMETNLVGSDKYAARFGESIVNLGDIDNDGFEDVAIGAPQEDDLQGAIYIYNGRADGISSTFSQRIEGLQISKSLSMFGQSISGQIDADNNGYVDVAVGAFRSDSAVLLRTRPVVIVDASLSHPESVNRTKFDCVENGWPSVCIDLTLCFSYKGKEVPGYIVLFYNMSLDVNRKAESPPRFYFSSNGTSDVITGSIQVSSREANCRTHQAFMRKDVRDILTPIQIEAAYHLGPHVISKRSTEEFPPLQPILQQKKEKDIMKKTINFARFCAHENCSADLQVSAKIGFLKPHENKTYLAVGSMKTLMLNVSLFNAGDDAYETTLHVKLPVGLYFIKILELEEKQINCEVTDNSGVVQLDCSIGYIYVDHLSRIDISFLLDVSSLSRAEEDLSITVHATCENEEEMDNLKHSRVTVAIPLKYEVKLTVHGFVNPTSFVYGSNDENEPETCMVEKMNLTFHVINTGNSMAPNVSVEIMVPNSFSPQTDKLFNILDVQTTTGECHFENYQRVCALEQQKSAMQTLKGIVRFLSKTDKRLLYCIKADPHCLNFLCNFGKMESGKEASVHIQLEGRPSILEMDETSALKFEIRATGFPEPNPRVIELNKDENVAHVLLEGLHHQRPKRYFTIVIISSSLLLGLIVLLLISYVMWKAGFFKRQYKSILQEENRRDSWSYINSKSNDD
T1 sequence (P05556 21-798): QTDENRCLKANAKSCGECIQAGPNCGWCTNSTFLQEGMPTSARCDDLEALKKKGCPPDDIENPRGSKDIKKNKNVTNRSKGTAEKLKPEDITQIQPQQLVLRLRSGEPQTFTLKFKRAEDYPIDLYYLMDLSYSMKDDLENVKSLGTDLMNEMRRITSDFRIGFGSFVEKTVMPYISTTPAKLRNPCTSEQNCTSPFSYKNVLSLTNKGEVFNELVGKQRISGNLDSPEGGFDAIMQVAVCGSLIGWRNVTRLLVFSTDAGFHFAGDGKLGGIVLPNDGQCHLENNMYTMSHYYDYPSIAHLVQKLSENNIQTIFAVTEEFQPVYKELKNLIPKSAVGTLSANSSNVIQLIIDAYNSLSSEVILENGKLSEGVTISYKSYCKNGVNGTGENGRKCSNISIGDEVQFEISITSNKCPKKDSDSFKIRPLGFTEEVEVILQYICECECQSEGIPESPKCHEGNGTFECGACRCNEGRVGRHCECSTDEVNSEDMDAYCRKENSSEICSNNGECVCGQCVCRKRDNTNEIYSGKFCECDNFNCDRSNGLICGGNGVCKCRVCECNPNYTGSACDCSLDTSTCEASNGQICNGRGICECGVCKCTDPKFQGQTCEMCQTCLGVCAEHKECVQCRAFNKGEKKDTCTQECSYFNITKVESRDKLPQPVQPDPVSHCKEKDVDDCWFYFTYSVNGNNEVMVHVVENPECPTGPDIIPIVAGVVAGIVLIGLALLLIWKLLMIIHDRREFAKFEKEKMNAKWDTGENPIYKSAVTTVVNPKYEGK
T2 sequence (P13612 34-1032): as the sequence (P13612 34-1032) above
T2 sequence (P05556 21-798): as the sequence (P05556 21-798) above

Regarding `CC(=O)N[C@@H](Cc1c[nH]c2ccccc12)C(=O)N[C@@H](CC(C)C)C(=O)N[C@@H](CC(=O)O)C(=O)N[C@H](C(N)=O)C(C)C` [SEQ ID NO:11, Ac-Trp-Leu-Asp-Val-amide] (Ac-WLDV-NH2), the “peptide concentration at which binding of α4 β1 to VCAM-1 is significantly inhibited” value in assay [1] was “less than 100 μM”.

Take `CC(C)C[C@H](NC(=O)[C@@H](N)Cc1ccccc1)C(=O)N[C@@H](CC(=O)O)C(=O)N[C@H](C(N)=O)C(C)C` [SEQ ID NO:25, Phe-Leu-Asp-Val-amide] (H-FLDV-NH2): in assay [1], the “peptide concentration at which binding of α4 β1 to VCAM-1 is significantly inhibited” value is given as “less than 100 μM”. Take “EWLDV-NH2 [SEQ ID NO:13, Glu-Trp-Leu-Asp-Val-amide]”: the “peptide concentration at which binding of α4 β1 to VCAM-1 is significantly inhibited” value in assay [1] was “less than 100 μM”.

Consider “EWLDV-OH [SEQ ID NO:14, Glu-Trp-Leu-Asp-Val-acid]”, for which the “peptide concentration at which binding of α4 β1 to VCAM-1 is significantly inhibited” value in assay [1] is on record as “less than 100 μM”. On to “GPEWLDVP-NH2 [SEQ ID NO:9, Gly-Pro-Glu-Trp-Leu-Asp-Val-Pro-amide]”, for which, in assay [2], the “relative quantity of adhered cells in relationship to peptide SEQ ID NO:9” value worked out at 1.00. Further, the IC50 in assay [1] (independent cell-protein based assays) is 30 µM.
